System: Axin2, cyclin D1 and LEF1 mRNA
Test: qPCR of Wnt target genes in SW480 cells
Type: cell-based, human
Settings: 24 h, HPRT spared
Protocol: Quantitative Real Time PCR analysis. SW480 cells at 1×10^6 cells/mL were treated with inhibitors at different concentrations for 24 h. MDA-MB-231 cells at 1×10^6 cells/mL were treated with 100 ng/mL recombinant Wnt 3a (rmW3aL-010, Time BioScience) for 30 min, then the inhibitors at different concentration were added and incubated for 24 h. Total RNAs were extracted with TRIzol (15596026, Life Technologies), and the cDNA was synthesized with the superscript III first-strand kit (18080-051, Invitrogen). qPCR experiments were performed using the iQTM SYBR green supermix kit (170-8880, BIO-RAD) on an CFX96 Real Time System (BIO-RAD). The threshold cycle (CT) values were normalized to that of internal reference GAPDH. Experiments were performed in triplicate. The primer pairs are shown below

CC(C)(Oc1cccc(N2CCC[C@H](C(=O)N(Cc3ccc(-c4cccs4)cc3)C3CC3)C2)c1)C(=O)NS(=O)(=O)c1ccc(C#N)cc1 [Compound 30, (S)-((4-Cyanophenyl)sulfonyl) (2-(3-(3-(cyclopropyl(4-(thiophen-2-yl)benzyl)carbamoyl)piperidin-1-yl)phenoxy)-2-methylpropanoyl)amide]
transcription of Wnt target genes Axin2, cyclin D1, LEF1 (qPCR): dose-dependently inhibited transcription of these Wnt target genes
